The results in this text go back to patent US7241799B2, “Cannabimimetic indole derivatives” (University of Connecticut, priority 1999, dated 2007).

pKi: −log10 of the molar value. Read-outs that look alike come from different tables or passages of the source.

In one assay the target is T1, CB2 receptor (Mus musculus, UniProt P47936).
T1 construct: membranes were prepared from frozen mouse spleen; from tissue; host or cells: mouse spleen
Kind of assay: CB2 receptor binding, [3H] CP-55,940 displacement, mouse spleen membranes. To be noted: for Ki: mouse spleen membranes, [3H] CP-55,940, read-out: Kl CB2 (converted); for selectivity for the CB2 receptor: binding selectivity CB2 versus CB1, from the results in the TABLES. The method, then: (§1) The materials were tested for CB2 receptor binding affinity and for CB1 receptor affinity (to determine selectivity for the CB2 receptor). As used herein, “binding affinity” is represented by the IC50 value which is the concentration of an analog required to occupy the 50% of the total number (Bmax) of the receptors. The lower the IC50 value the higher the binding affinity.
(§2) The treated membranes were subsequently used in the binding assay described below. Approximately 30 μg of membranes were incubated in silanized 96-well microtiter plate with TME containing 0.1% essentially fatty acid-free bovine serum albumin (BSA), 0.8 nM [^3H] CP-55,940, and various concentrations of test materials at […] for 1 hour. The samples were filtered using Packard Filtermate 196 and Whatman GF/C filterplates and washed with wash buffer (TME) containing 0.5% BSA. Radioactivity was detected using MicroScint 20 scintillation cocktail added directly to the dried filterplates, and the filterplates were counted using a Packard Instruments Top-Count. Nonspecific binding was assessed using 100 nM CP-55,940. Data collected from three independent experiments performed with duplicate determinations was normalized between 100% and 0% specific binding for [^3H] CP-55,940, determined using buffer and 100 nM CP-55,940. The normalized data was analyzed using a 4-parameter nonlinear logistic equation to yield IC50 values. Data from at least two independent experiments performed in duplicate was used to calculate IC50 values which were converted to Ki values using the assumptions of Cheng et al, Relationship Between the Inhibition Constant (Ki) and the concentration of Inhibitor which causes 50% Inhibition (IC50) of an Enzymatic Reaction, Biochem. Pharmacol., 22, 3099–3102, (1973), which is incorporated by reference herein.
For the CB2 receptor binding studies, membranes were prepared from frozen mouse spleen essentially according to the procedure of P. R. Dodd et al, A Rapid Method for Preparing Synaptosomes: Comparison with Alternative Procedures, Brain Res., 226, 107–118 (1981) which is incorporated by reference herein. Silanized centrifuge tubes were used throughout to minimize receptor loss due to adsorption. The CB2 binding assay was conducted in the same manner as for the CB1 binding assay. The binding affinities (Ki) were also expressed in nanomoles (nM).

Another assay addresses T2, CB1 receptor (Rattus norvegicus, UniProt P20272).
T2 construct: membranes were prepared from rat forebrain membranes; from tissue; host or cells: rat forebrain
The assay is described as follows: CB1 receptor binding, [3H] CP-55,940 displacement, rat forebrain membranes. To be noted: for pKi: rat forebrain membranes, 0.8 nM [3H] CP-55,940, read-out: Kl CB1; for selectivity for the CB1 receptor: binding selectivity CB1 versus CB2, from the results in the TABLES. As to the method:
as §1
For the CB1 receptor binding studies, membranes were prepared from rat forebrain membranes according to the procedure of P. R. Dodd et al, A Rapid Method for Preparing Synaptosomes: Comparison with Alternative Procedures, Brain Res., 107–118 (1981). The binding of the novel analogues to the CB1 cannabinoid receptor was assessed as described in W. A. Devane et al, Determination and Characterization of a Cannabinoid Receptor in a Rat Brain, Mol. Pharmacol., 34, 605–613 (1988) and A. Charalambous et al, 5′-azido Δ^8 THC: A Novel Photoaffinity Label for the Cannabinoid Receptor, J. Med. Chem., 35, 3076–3079 (1992) with the following changes. The above articles are incorporated by reference herein.
Membranes, previously frozen at −80° C., were thawed on ice. To the stirred suspension was added three volumes of TME (25 mM Tris-HCl buffer, 5 mM MgCl2 and 1 mM EDTA) at a pH 7.4. The suspension was incubated at 4° C. for 30 min. At the end of the incubation, the membranes were pelleted and washed three times with TME.
as §2

T2 sequence (P20272 whole entry): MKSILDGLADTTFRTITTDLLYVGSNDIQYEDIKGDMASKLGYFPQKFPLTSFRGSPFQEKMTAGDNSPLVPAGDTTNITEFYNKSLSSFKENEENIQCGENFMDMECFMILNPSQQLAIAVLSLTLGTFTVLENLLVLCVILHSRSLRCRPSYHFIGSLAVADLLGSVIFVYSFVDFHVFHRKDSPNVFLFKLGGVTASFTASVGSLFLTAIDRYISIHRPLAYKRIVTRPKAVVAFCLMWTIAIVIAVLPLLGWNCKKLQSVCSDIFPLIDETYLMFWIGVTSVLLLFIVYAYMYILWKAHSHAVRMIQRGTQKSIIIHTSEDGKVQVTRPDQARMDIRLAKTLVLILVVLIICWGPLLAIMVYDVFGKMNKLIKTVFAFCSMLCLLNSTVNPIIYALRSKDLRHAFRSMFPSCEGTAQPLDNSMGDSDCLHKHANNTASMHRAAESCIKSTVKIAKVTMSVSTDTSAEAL
T1 sequence (P47936 whole entry): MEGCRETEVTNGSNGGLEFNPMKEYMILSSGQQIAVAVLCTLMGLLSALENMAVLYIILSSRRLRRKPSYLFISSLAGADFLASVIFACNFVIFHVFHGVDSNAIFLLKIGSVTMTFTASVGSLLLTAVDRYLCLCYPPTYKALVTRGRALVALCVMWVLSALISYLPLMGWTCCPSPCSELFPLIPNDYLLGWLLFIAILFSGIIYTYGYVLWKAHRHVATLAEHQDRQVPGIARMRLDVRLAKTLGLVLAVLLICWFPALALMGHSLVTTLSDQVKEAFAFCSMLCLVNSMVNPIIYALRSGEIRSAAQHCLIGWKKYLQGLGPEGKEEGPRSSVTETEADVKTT

For the compound `CN1CCCCC1Cn1cc(C(=O)C23CC4CC(CC(C4)C2)C3)c2ccccc21` (stereo not drawn) [AM1248], the Ki on CB2 receptor (TABLE 1, racemic samples) was 332 nM. In addition, the pKi at CB1 receptor (TABLE 1, racemic samples) is 7.00.
Regarding `CCCCCn1c(C)c(C(=O)c2ccc(N(C)C)c3ccccc23)c2ccccc21` [AM1256], on CB2 receptor (TABLE 2), the Ki was 18.6 nM. Further, the pKi on CB1 receptor (TABLE 2) is 8.32.
In the same order, the values of `CC(=O)OCCCCn1cc(C(=O)c2cccc3ccccc23)c2ccccc21` [AM1282] are 101 nM and 6.87.
For the compound `O=C(c1cccc2ccccc12)c1cn(CCCCO)c2ccccc12` [AM1283], on CB2 receptor (TABLE 2), the Ki is 196 nM. The pKi on CB1 receptor (TABLE 2) is 6.93.
Consider `CC(=O)OCCCn1cc(C(=O)c2cccc3ccccc23)c2ccccc21` [AM1284], for which the Ki on CB2 receptor (TABLE 2) was 103 nM. In addition, on CB1 receptor (TABLE 2), the pKi was 6.90.
In the same order, the values of `Cc1ccc(S(=O)(=O)OCCCCn2cc(C(=O)c3cccc4ccccc34)c3ccccc32)cc1` [AM1286] are 1290 nM and 5.82.
Turning to `O=C(c1cccc2ccccc12)c1cn(CCCCI)c2ccccc12` [AM1288], the Ki at CB2 receptor (TABLE 2) was 10.5 nM. Further, the pKi at CB1 receptor (TABLE 2) was 8.89. Further, on CB1 receptor, the “selectivity for the CB1 receptor” value is “high selectivity for the CB1 receptor”.
In the case of `Cc1ccc(S(=O)(=O)OCCCn2cc(C(=O)c3cccc4ccccc34)c3ccccc32)cc1` [AM1289], the Ki at CB2 receptor (TABLE 2) was 78.6 nM. In addition, on CB2 receptor, the “selectivity for the CB2 receptor” value is listed as “high selectivity for the CB2 receptor”. The pKi on CB1 receptor (TABLE 2) is 6.44.
As to `O=C(c1cccc2ccccc12)c1cn(CCCCN=C=S)c2ccccc12` [AM1291], the Ki on CB2 receptor (TABLE 2) was 1800 nM. For the same compound, the pKi at CB1 receptor (TABLE 2) was 5.53.
On the same counts, the results for `O=C(c1cccc2ccccc12)c1cn(CCCI)c2ccccc12` [AM1292] are 18.1 nM and 8.51.
Take `O=C(c1cccc2ccccc12)c1cn(CCCN=C=S)c2ccccc12` [AM1294]: on CB2 receptor (TABLE 2), the Ki is 237 nM. The pKi at CB1 receptor (TABLE 2) was 6.55.
Take `O=C(c1cccc2ccccc12)c1cn(CCCCF)c2ccccc12` [AM1295]: the Ki on CB2 receptor (TABLE 2) was 30.7 nM. Also, the pKi on CB1 receptor (TABLE 2) is 8.60. Besides, at CB1 receptor, the “selectivity for the CB1 receptor” value is listed as “high selectivity for the CB1 receptor”.
Consider `CN1CCCCC1Cn1cc(C(=O)c2cccc3ccccc23)c2ccccc21` (stereo not drawn) [AM1296], for which, at CB2 receptor (TABLE 1, racemic samples), the Ki is 3.88 nM. On CB1 receptor (TABLE 1, racemic samples), the pKi is 8.12.
On the same counts, the results for `CN1CCCCC1Cn1cc(C(=O)c2ccc([N+](=O)[O-])c3ccccc23)c2ccccc21` (stereo not drawn) [AM1299] are 13.5 nM and 7.91.
On to `O=C(c1cccc2ccccc12)c1cn(CCCCCF)c2ccccc12` [AM2201], for which, on CB2 receptor (TABLE 2), the Ki was 2.6 nM. For the same compound, the pKi at CB1 receptor (TABLE 2) is 9.00.
On the same counts, the results for `O=C(c1cccc2ccccc12)c1cn(CCCCCO)c2ccccc12` [AM2202] are 111 nM and 7.48.
Consider `O=C(c1cccc2ccccc12)c1cn(CCCCCI)c2ccccc12` [AM2203], for which the Ki on CB2 receptor (TABLE 2) was 45.8 nM. Besides, on CB1 receptor (TABLE 2), the pKi is 8.11.
Turning to `O=C(c1cccc2ccccc12)c1cn(CCCCCN=C=S)c2ccccc12` [AM2204], on CB2 receptor (TABLE 2), the Ki was 24.4 nM. For the same compound, the pKi on CB1 receptor (TABLE 2) was 8.12.
Regarding `O=C(c1ccc([N+](=O)[O-])c2ccccc12)c1cn(CCCCI)c2ccccc12` [AM2210], the Ki on CB2 receptor (TABLE 2) was 11.3 nM. Besides, the pKi at CB1 receptor (TABLE 2) is 8.74.
Regarding `[N-]=[N+]=Nc1ccc(C(=O)c2cn(CCCCI)c3ccccc23)c2ccccc12` [AM2213], at CB2 receptor (TABLE 2), the Ki was 30 nM. In addition, the pKi on CB1 receptor (TABLE 2) was 8.52.
As for `O=C(c1ccc(N=C=S)c2ccccc12)c1cn(CCCCI)c2ccccc12` [AM2216], the Ki at CB2 receptor (TABLE 2) is 213 nM. Also, the pKi at CB1 receptor (TABLE 2) was 7.37.
Turning to `Cc1c(C(=O)c2ccccc2I)c2ccccc2n1CCCCCF` [AM2225], the Ki at CB2 receptor (TABLE 2) is 3.8 nM. Also, the pKi on CB1 receptor (TABLE 2) is 8.22.
Consider `Cc1ccc(S(=O)(=O)OCCCCCn2c(C)c(C(=O)c3ccccc3I)c3ccccc32)cc1` [AM2227], for which the Ki on CB2 receptor (TABLE 2) is 2970 nM. Also, at CB1 receptor (TABLE 2), the pKi is 5.99.
In the same order, the values of `Cc1c(C(=O)c2ccccc2I)c2ccccc2n1CCCCCI` [AM2229] are 46.2 nM and 6.93.
Regarding `Cc1c(C(=O)c2ccccc2I)c2ccccc2n1CCCCCN=C=S` [AM2230], the Ki on CB2 receptor (TABLE 2) was 29.5 nM. In addition, on CB2 receptor, the “selectivity for the CB2 receptor” value is reported as “high selectivity for the CB2 receptor”. Moreover, the pKi at CB1 receptor (TABLE 2) was 6.71.
Take `N#CCCCCn1cc(C(=O)c2cccc3ccccc23)c2ccc([N+](=O)[O-])cc21` [AM2231]: at CB2 receptor (TABLE 2), the Ki is 23.9 nM. Besides, on CB1 receptor (TABLE 2), the pKi is 8.31.
On the same counts, the results for `N#CCCCCn1cc(C(=O)c2cccc3ccccc23)c2ccccc21` [AM2232] are 1.48 nM and 9.55.
Turning to `O=C(c1cccc2ccccc12)c1cn(CCCCCF)c2cc(I)ccc12` [Am1230], the Ki at CB2 receptor (TABLE 2) is 2.4 nM. Also, the pKi at CB1 receptor (TABLE 2) was 8.96.
